Earlier results as cited in patent publication US20200330542A1, “COMPOSITION FOR THE ACUTE AND CHRONIC TREATMENT OF CONSTIPATION” (NEILOS S.R.L., priority 2017, published 2020).

Conditions: human, in vivo

In the case of glucomannan, the tolerability is given as “well tolerated without significant side effects”.
